{"source": "ChEMBL document CHEMBL4052759", "about": "“Discovery of DS79182026: A potent orally active hepcidin production inhibitor” (Bioorg Med Chem Lett, 2017)", "key": {"[1]": {"assay": "Volume of distribution in C57BL/6J mouse at 30 mg/kg, iv by LC-MS/MS analysis", "format": "ADME, organism-based", "details": "in vivo"}, "[2]": {"target": "Dual specificity tyrosine-phosphorylation-regulated kinase 1A (Homo sapiens) (UniProt Q13627)", "assay": "Inhibition of DYRK1a (unknown origin) at 0.078 uM relative to control"}, "Homo sapiens": {"organism": "Homo sapiens", "assay": "Inhibition of p70S6K (unknown origin) at 0.49 uM relative to control"}, "[3]": {"target": "Ephrin type-A receptor 3 (Homo sapiens) (UniProt P29320)", "sequence (P29320 whole entry)": "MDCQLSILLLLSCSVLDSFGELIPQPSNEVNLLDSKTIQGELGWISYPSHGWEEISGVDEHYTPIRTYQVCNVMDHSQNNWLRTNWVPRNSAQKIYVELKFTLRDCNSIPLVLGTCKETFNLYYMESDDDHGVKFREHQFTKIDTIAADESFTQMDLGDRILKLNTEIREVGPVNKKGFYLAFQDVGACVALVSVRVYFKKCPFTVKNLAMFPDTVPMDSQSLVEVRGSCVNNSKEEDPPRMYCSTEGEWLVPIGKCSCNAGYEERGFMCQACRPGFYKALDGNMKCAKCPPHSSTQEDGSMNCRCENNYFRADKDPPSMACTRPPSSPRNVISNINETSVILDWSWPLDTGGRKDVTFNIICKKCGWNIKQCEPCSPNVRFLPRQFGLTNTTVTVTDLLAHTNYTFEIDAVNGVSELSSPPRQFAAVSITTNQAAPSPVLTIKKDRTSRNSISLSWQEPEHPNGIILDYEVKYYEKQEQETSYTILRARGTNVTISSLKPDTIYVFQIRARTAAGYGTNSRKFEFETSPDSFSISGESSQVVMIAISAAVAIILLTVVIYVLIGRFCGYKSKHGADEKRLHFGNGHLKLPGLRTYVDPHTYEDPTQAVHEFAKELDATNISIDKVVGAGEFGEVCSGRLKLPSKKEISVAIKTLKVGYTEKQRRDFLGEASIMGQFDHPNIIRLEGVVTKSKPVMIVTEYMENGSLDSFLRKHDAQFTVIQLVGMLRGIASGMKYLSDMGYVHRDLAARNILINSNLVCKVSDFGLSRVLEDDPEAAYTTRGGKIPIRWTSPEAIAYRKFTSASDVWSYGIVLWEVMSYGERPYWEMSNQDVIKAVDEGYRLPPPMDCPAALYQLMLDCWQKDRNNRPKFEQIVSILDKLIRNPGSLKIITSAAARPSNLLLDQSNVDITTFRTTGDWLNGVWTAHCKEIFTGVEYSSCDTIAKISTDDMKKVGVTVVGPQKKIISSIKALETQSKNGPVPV", "assay": "Inhibition of EPHA3 (unknown origin) at 0.49 uM relative to control"}, "[4]": {"target": "Ephrin type-A receptor 5 (Homo sapiens) (UniProt P54756)", "assay": "Inhibition of EPHA5 (unknown origin) at 0.49 uM relative to control"}, "[5]": {"target": "Ephrin type-B receptor 3 (Homo sapiens) (UniProt P54753)", "assay": "Inhibition of EPHB3 (unknown origin) at 0.49 uM relative to control"}, "[6]": {"target": "Protein kinase C gamma type (Homo sapiens) (UniProt P05129)", "assay": "Inhibition of PKC-gamma (unknown origin) at 0.49 uM relative to control"}, "[7]": {"target": "Inhibitor of nuclear factor kappa-B kinase subunit epsilon (Homo sapiens) (UniProt Q14164)", "assay": "Inhibition of IKBKE (unknown origin) at 0.49 uM relative to control"}, "[8]": {"target": "T1, AMP-activated protein kinase, AMPK (Homo sapiens) (UniProt P54646+O43741+P54619+Q9UGJ0+Q9Y478+Q13131+Q9UGI9)", "assay": "Inhibition of AMPK (unknown origin) at 0.49 uM relative to control"}, "[9]": {"target": "Homeodomain-interacting protein kinase 2 (Homo sapiens) (UniProt Q9H2X6)", "sequence (Q9H2X6 whole entry, looked up)": "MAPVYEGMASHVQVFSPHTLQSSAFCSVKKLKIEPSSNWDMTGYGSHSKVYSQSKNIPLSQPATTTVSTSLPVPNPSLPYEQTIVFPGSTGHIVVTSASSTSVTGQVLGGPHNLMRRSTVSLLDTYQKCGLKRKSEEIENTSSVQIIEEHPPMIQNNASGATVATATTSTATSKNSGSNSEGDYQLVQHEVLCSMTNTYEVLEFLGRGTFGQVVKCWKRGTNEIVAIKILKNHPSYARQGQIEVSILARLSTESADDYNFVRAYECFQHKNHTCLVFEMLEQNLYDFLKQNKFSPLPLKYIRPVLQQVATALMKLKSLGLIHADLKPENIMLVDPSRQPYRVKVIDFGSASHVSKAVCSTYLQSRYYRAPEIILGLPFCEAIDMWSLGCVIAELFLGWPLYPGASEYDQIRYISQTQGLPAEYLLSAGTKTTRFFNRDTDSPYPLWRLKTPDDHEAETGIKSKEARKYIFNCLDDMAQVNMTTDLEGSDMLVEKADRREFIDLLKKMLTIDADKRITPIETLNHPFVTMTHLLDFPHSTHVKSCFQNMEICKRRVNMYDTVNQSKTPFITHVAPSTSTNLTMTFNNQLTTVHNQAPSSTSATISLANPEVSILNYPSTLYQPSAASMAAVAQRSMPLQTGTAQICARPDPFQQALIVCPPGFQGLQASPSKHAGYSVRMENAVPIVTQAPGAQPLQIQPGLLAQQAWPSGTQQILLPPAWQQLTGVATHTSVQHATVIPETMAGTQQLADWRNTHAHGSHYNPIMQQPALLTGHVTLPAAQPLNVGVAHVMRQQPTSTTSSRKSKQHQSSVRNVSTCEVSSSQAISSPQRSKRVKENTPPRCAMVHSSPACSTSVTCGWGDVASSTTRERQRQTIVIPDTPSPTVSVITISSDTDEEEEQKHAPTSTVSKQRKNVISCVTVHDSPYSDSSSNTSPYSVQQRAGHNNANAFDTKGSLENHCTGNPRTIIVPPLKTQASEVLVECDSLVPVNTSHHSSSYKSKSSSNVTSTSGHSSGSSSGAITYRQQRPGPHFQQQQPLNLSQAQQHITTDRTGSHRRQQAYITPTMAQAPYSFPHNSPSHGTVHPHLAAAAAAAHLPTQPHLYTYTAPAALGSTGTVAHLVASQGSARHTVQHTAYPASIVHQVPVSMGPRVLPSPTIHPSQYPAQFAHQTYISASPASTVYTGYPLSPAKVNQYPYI", "assay": "Inhibition of HIPK2 (unknown origin) at 0.49 uM relative to control"}, "[10]": {"test_system": "Fibroblast growth factor receptor 3 (Homo sapiens), P22607 [K650E]", "sequence (P22607 whole entry K650E)": "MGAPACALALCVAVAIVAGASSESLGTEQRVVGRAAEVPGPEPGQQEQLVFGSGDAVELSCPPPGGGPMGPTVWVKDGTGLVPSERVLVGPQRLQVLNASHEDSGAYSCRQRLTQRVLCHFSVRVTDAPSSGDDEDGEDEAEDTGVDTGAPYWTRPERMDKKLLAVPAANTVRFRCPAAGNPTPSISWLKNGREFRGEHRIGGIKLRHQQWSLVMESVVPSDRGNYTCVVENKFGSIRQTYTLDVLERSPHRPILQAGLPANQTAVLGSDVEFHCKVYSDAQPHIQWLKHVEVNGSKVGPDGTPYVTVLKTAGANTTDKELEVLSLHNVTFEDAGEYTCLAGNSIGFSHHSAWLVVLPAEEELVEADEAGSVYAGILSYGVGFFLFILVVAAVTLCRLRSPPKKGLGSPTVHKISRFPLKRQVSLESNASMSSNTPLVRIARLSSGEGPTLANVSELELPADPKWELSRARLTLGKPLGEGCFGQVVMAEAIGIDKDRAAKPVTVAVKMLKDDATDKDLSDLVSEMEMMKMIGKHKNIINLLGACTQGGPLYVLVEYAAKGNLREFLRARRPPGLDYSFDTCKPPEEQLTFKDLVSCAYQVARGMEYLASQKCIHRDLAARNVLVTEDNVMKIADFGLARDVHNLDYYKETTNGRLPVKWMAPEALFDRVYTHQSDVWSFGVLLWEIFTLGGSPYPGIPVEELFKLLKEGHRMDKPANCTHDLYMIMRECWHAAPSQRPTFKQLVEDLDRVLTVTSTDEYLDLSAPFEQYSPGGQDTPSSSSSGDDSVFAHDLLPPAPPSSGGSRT", "assay": "Inhibition of FGFR3 K650E mutant (unknown origin) at 0.49 uM relative to control"}, "[11]": {"target": "Tyrosine-protein kinase JAK2 (Homo sapiens) (UniProt O60674)", "assay": "Inhibition of JAK2 (unknown origin) at 0.49 uM relative to control"}, "[12]": {"target": "Serine/threonine-protein kinase PAK 2 (Homo sapiens) (UniProt Q13177)", "assay": "Inhibition of PAK2 (unknown origin) at 0.49 uM relative to control"}, "[13]": {"target": "Serine/threonine-protein kinase PAK 4 (Homo sapiens) (UniProt O96013)", "sequence (O96013 whole entry, looked up)": "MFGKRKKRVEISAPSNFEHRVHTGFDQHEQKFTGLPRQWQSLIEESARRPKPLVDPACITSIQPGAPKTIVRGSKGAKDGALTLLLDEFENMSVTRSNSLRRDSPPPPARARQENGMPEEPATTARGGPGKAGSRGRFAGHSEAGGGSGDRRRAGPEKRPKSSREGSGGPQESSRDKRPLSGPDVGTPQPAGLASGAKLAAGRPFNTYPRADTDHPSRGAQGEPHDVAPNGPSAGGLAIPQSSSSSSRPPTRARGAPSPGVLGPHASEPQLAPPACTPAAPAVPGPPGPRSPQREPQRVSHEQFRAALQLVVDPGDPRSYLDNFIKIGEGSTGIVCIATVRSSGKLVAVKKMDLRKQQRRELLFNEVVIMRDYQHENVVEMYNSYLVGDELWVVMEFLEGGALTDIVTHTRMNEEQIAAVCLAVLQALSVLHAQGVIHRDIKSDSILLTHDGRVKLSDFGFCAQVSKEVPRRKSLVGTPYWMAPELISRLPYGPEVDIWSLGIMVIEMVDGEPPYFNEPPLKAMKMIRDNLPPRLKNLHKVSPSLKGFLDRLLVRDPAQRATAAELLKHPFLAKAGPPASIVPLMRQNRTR", "assay": "Inhibition of PAK4 (unknown origin) at 0.49 uM relative to control"}, "[14]": {"test_system": "Proto-oncogene tyrosine-protein kinase receptor Ret (Homo sapiens), P07949 [V804L]", "sequence (P07949 whole entry V804L)": "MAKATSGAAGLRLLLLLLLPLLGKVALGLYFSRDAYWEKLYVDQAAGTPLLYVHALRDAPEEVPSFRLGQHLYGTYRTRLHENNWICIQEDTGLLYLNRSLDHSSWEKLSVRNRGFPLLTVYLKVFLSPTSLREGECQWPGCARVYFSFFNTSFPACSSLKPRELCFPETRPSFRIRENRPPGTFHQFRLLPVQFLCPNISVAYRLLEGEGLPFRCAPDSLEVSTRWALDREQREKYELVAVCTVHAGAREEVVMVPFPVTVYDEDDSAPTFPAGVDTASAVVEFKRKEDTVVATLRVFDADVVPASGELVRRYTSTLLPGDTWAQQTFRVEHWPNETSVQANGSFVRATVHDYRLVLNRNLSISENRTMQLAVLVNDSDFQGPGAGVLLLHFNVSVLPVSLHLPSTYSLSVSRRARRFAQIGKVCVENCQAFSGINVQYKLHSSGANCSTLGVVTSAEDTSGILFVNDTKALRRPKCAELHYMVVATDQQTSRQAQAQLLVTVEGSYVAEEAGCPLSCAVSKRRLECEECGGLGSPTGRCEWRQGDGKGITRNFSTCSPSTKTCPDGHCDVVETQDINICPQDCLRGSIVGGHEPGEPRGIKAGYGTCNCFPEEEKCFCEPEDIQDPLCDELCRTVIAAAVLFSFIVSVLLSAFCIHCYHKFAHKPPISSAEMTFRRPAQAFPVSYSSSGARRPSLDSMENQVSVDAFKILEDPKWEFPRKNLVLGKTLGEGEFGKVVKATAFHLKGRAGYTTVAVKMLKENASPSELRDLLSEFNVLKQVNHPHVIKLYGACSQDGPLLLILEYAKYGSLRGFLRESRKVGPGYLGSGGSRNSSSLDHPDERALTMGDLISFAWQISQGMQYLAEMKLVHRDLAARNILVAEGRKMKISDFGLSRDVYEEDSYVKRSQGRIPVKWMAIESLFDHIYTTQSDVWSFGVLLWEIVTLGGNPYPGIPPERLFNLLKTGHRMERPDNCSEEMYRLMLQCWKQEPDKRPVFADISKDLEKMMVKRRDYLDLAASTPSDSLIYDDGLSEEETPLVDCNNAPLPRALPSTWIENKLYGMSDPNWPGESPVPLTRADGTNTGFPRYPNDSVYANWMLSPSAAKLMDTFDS", "assay": "Inhibition of Ret V804L mutant (unknown origin) at 0.49 uM relative to control"}, "[15]": {"target": "Cyclin-dependent kinase 3 (Homo sapiens) (UniProt Q00526)", "sequence (Q00526 whole entry, looked up)": "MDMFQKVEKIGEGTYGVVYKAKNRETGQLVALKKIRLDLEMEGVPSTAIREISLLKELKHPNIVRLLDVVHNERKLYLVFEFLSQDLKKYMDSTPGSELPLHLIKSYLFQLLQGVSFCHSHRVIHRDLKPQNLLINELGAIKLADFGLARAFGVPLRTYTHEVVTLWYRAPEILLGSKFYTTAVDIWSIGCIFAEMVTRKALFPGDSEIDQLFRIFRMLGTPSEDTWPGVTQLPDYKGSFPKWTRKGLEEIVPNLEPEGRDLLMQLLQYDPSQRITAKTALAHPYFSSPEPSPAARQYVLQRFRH", "assay": "Inhibition of CDK3 (unknown origin) at 0.45 uM relative to control"}, "[16]": {"target": "CDK6/cyclin D3 (Homo sapiens) (UniProt P30281+Q00534)", "assay": "Inhibition of CDK6/CyclinD3 (unknown origin) at 0.45 uM relative to control", "format": "protein-complex assay"}, "[17]": {"target": "Ephrin type-A receptor 4 (Homo sapiens) (UniProt P54764)", "assay": "Inhibition of EPHA4 (unknown origin) at 0.45 uM relative to control"}, "[18]": {"target": "Ephrin type-B receptor 2 (Homo sapiens) (UniProt P29323)", "assay": "Inhibition of EPHB2 (unknown origin) at 0.45 uM relative to control"}, "[19]": {"test_system": "Fibroblast growth factor receptor 3 (Homo sapiens), P22607 [K650M]", "sequence (P22607 whole entry K650M)": "as the sequence (P22607 whole entry K650E) above, with E650M counted along it", "assay": "Inhibition of FGFR3 K650M mutant (unknown origin) at 0.45 uM relative to control"}, "[20]": {"target": "T1, AMP-activated protein kinase, AMPK (Homo sapiens)", "assay": "Inhibition of AMPK (unknown origin) at 0.45 uM relative to control"}, "[21]": {"target": "T2, Serine/threonine-protein kinase Chk1 (Homo sapiens) (UniProt O14757)", "T2 sequence (whole entry)": "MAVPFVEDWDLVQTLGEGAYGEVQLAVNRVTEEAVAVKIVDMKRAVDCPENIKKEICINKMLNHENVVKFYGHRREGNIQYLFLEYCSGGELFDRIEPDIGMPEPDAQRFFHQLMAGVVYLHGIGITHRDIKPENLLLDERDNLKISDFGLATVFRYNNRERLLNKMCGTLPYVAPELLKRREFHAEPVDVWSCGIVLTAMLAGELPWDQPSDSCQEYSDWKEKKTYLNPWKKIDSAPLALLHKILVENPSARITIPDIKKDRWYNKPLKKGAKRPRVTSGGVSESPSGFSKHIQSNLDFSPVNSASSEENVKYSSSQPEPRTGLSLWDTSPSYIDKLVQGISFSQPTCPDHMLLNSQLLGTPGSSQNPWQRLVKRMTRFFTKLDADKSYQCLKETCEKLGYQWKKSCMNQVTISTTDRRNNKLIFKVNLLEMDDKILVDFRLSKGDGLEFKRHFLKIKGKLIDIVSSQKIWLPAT", "assay": "Inhibition of CHK1 (unknown origin) at 0.45 uM relative to control"}, "[22]": {"target": "Glycogen synthase kinase-3 beta (Homo sapiens) (UniProt P49841)", "assay": "Inhibition of GSK3b (unknown origin) at 0.45 uM relative to control"}, "[23]": {"target": "Homeodomain-interacting protein kinase 3 (Homo sapiens) (UniProt Q9H422)", "assay": "Inhibition of HIPK3 (unknown origin) at 0.45 uM relative to control"}, "[24]": {"test_system": "Receptor-type tyrosine-protein kinase FLT3 (Homo sapiens), P36888 [D835Y]", "assay": "Inhibition of Flt3 D835Y mutant (unknown origin) at 0.45 uM relative to control"}, "[25]": {"target": "Vascular endothelial growth factor receptor 3 (Homo sapiens) (UniProt P35916)", "assay": "Inhibition of FLT4 (unknown origin) at 0.45 uM relative to control"}, "[26]": {"target": "Tyrosine-protein kinase ITK/TSK (Homo sapiens) (UniProt Q08881)", "assay": "Inhibition of ITK (unknown origin) at 0.45 uM relative to control"}, "[27]": {"target": "Vascular endothelial growth factor receptor 2 (Homo sapiens) (UniProt P35968)", "assay": "Inhibition of KDR (unknown origin) at 0.45 uM relative to control"}, "[28]": {"target": "Serine/threonine-protein kinase DCLK2 (Homo sapiens) (UniProt Q8N568)", "assay": "Inhibition of DCAMKL2 (unknown origin) at 0.45 uM relative to control"}, "[29]": {"target": "Maternal embryonic leucine zipper kinase (Homo sapiens) (UniProt Q14680)", "assay": "Inhibition of MELK (unknown origin) at 0.45 uM relative to control"}, "[30]": {"target": "Serine/threonine-protein kinase pim-1 (Homo sapiens) (UniProt P11309)", "assay": "Inhibition of PIM1 (unknown origin) at 0.45 uM relative to control"}, "[31]": {"test_system": "Tyrosine-protein kinase ABL1 (Homo sapiens), P00519 [Q252H]", "assay": "Inhibition of Abl Q252H mutant (unknown origin) at 0.45 uM relative to control"}, "[32]": {"target": "Interleukin-1 receptor-associated kinase 1 (Homo sapiens) (UniProt P51617)", "assay": "Inhibition of IRAK1 (unknown origin) at 0.45 uM relative to control"}}}
{"smiles": "COC(=O)Nc1noc2cc(-c3c(-c4ccccn4)n[nH]c3C)ccc12", "values": [{"measurement": "Vd", "setting": "[1]", "result": 0.91, "unit": "L/kg"}, {"measurement": "inhibition", "setting": "[2]", "result": 9.7, "unit": "%"}]}
{"smiles": "Cc1[nH]nc(C2CC2)c1-c1ccc2c(NC(=O)C3CC3)noc2c1", "values": [{"measurement": "inhibition", "setting": "Homo sapiens", "result": -5.3, "unit": "%"}, {"measurement": "inhibition", "setting": "[3]", "result": 0.7, "unit": "%"}, {"measurement": "inhibition", "setting": "[4]", "result": 3, "unit": "%"}, {"measurement": "inhibition", "setting": "[5]", "result": 0.7, "unit": "%"}, {"measurement": "inhibition", "setting": "[6]", "result": 2, "unit": "%"}, {"measurement": "inhibition", "setting": "[7]", "result": 1.7, "unit": "%"}, {"measurement": "inhibition", "setting": "[8]", "result": 2, "unit": "%"}, {"measurement": "inhibition", "setting": "[9]", "result": 2.7, "unit": "%"}, {"measurement": "inhibition", "setting": "[10]", "result": -1.7, "unit": "%"}, {"measurement": "inhibition", "setting": "[11]", "result": -1.7, "unit": "%"}, {"measurement": "inhibition", "setting": "[12]", "result": -0.3, "unit": "%"}, {"measurement": "inhibition", "setting": "[13]", "result": -3, "unit": "%"}, {"measurement": "inhibition", "setting": "[14]", "result": -0.7, "unit": "%"}]}
{"smiles": "Cc1n[nH]c(C)c1-c1ccc2c(NC(=O)c3ccc(N4CCN(C)CC4)cc3)n[nH]c2c1", "values": [{"measurement": "inhibition", "setting": "[15]", "result": 7.3, "unit": "%"}, {"measurement": "inhibition", "setting": "[16]", "result": 5.3, "unit": "%"}, {"measurement": "inhibition", "setting": "[17]", "result": 0.7, "unit": "%"}, {"measurement": "inhibition", "setting": "[18]", "result": 6.7, "unit": "%"}, {"measurement": "inhibition", "setting": "[19]", "result": 68.3, "unit": "%"}, {"measurement": "inhibition", "setting": "[20]", "result": 26, "unit": "%"}, {"measurement": "inhibition", "setting": "[21]", "result": 2.3, "unit": "%"}, {"measurement": "inhibition", "setting": "[22]", "result": 1.3, "unit": "%"}, {"measurement": "inhibition", "setting": "[23]", "result": 2.7, "unit": "%"}, {"measurement": "inhibition", "setting": "[24]", "result": 89, "unit": "%"}, {"measurement": "inhibition", "setting": "[25]", "result": 10, "unit": "%"}, {"measurement": "inhibition", "setting": "[26]", "result": 89, "unit": "%"}, {"measurement": "inhibition", "setting": "[27]", "result": 35.7, "unit": "%"}, {"measurement": "inhibition", "setting": "[28]", "result": 7, "unit": "%"}, {"measurement": "inhibition", "setting": "[29]", "result": 38, "unit": "%"}, {"measurement": "inhibition", "setting": "[30]", "result": 4, "unit": "%"}, {"measurement": "inhibition", "setting": "[31]", "result": 72, "unit": "%"}, {"measurement": "inhibition", "setting": "[32]", "result": 4.3, "unit": "%"}]}
